We go through one molecule from US20260327239A1, “COMPOUNDS FOR COVALENT INHIBITION OF SHP2” (Purdue Research Foundation, priority 2023, published 2026).

Each structure is given as a SMILES string.

The term IC50 denotes the concentration at which inhibition is half-maximal.

The target in experiment [1] is SHP1 (Homo sapiens, UniProt P29350). Kind of experiment: Time-dependent IC50 determination, SHP1 (10 min preincubation, pNPP). The format is biochemical. The protocol:
(§1) During active compound characterization, other common PTPs, including SHP1. PTP1B, and LYP, were counter-screened. Compounds were incubated for 10 minutes with the corresponding PTP (4 μM) before being diluted 50-fold into a solution containing excess substrate para-nitrophenyl phosphate (10 mM) to monitor the remaining activity. […] This was not expected, given their high sequence and structural homology. […] While unexpected, the lower sequence homology provides a rationale for the observed selectivity.
(§2) Inhibitors were evaluated for their ability to inhibit the reaction catalyzed by SHP2 using para-nitrophenyl phosphate (pNPP) as a substrate at pH 7 and 25° C. The reaction was started in a clear flat-bottom 96-well plate (Corning Costar Assay Plate #9017) by the addition of 25 μL of 4 μM PTP in DMG buffer to 25 μl of 2× inhibitor (final concentrations=2 μM PTP, 100-0 μM inhibitor). Reactions were incubated for 1 or 10 minutes before transferring 4 μL into 196 μL of 10.1 mM pNPP in DMG buffer (final concentration=40 nM PTP, 10 mM pNPP). These wells were then allowed to react for 10, 45, or 3 minutes for SHP1 and SHP2, LYP, PTP1B respectively before quenching with 50 μL of 5 M NaOH. Plates were then read for absorbance at 405 nm using a CLARIOstar^Plus plate reader (BMG Labetch). […]

Experiment [2] concerns the target T1, SHP2 (Homo sapiens, UniProt Q06124).
T1 construct: 4× solution of SHP2 (residues 224-528)
T1 sequence (Q06124 224-528): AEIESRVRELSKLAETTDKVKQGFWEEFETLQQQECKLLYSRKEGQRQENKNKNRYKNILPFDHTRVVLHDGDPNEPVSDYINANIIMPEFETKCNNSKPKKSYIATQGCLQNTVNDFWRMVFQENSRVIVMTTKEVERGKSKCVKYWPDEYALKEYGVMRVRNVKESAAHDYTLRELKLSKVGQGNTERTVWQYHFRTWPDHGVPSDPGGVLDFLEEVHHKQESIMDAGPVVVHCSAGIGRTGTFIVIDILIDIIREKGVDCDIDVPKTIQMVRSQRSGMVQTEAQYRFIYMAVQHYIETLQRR
Kind of experiment: Covalent adduct formation on SHP2 by intact protein LC-MS. The format is binding. The following applies: 10 μM SHP2, 60 minutes. The protocol: To validate covalent modification of SHP2 by the active compounds, adduct formation on SHP2 was measured by intact protein liquid chromatography-mass spectrometry (LC-MS). With intact protein LC-MS, multiply charged states of the protein species can be deconvoluted to achieve the total mass(es). Compounds were incubated with 10 μM SHP2 for 60 minutes before being quenched with acetonitrile for LC-MS analysis by electrospray ionization (ESI) in positive mode. […] (33), and (42) (FIGS. 3A and 3B).
To unfold protein and quench protein-ligand reactivity, 10 μL of treated or untreated 10 μM SHP2 was diluted in 40 μL of 80% (v/v) formic acid initially, followed by 150 μL of LC-MS buffer (50/50 water/acetonitrile with 0.1% formic acid). 20-25 pmol per sample was analyzed by LC/MS (Agilent 1260 Infinity II with a ZORBAX Rapid Resolution High Definition 300 Å Stable Bond C3, 2.1×100 mm, 1.8 μm column) attached to an Agilent 6129 quadrupole mass spectrometer in positive ion mode. The column was held at 45° C. Mobile solution A was 0.1% formic acid in water, and mobile phase B was 0.1% formic acid in acetonitrile. The gradient used was hold at 10% B for 5 min, increase linearly to 80% B for 15 min, and then hold at 80% B for 5 min. The mass data were collected at a range of 600-1500 m/z. Raw data were processed using MestReNova. For all samples, the deconvoluted mass was calculated by taking the m/z range of 730-1100 Da, and deconvoluted mass range from 36500-37200 Da. An abundance threshold of 10% and tolerance of 30 ppm was set for deconvolution. Unreacted SHP2's total deconvoluted mass was 36602±10 Da; for each deconvolution, the highest deconvoluted mass intensity was utilized as the mass pivot point to determine and identify reacted SHP2 adducts. To calculate the percent SHP2 reacted, the relative abundance intensity of reacted SHP2 was divided by the total relative abundance intensities of unreacted and reacted SHP2.

Experiment [3] has as its target T1, SHP2. Description: Time-dependent IC50 determination, SHP2 (10 min preincubation, pNPP). The class given is biochemical. The following applies: 10 mM pNPP, pH 7, 25° C, read-out: 10 Minute IC50. Here is the method:
as §1, §2

Sequence of SHP1 (P29350 whole entry): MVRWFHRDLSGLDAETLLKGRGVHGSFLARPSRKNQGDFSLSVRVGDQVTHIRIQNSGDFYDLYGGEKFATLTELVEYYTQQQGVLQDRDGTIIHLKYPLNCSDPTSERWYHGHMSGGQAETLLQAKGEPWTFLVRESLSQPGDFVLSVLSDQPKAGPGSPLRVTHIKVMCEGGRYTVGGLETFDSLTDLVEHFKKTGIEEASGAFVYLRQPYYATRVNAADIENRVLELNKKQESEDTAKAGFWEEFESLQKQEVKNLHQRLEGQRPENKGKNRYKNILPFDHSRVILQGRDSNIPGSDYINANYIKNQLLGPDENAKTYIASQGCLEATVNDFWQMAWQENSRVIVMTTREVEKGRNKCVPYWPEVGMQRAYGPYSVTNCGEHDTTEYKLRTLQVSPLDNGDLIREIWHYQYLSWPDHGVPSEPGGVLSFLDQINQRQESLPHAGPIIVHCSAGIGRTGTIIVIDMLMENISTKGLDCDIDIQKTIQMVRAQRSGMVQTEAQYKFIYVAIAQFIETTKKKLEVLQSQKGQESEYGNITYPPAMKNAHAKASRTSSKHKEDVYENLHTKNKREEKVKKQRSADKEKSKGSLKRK

Turning to `C=C1C(=O)[C@@]2(C(=O)N3CCN(c4ccc(I)cc4)CC3)CC(=O)C[C@@H]1C2` [Compound 37], the half-maximal inhibitory concentration (IC50) was 212 µM in experiment [1] (SHP1, 10 minutes preincubation, curve not completed (solubility), extrapolated, read-out: 10 Minute IC50) and 15.4 µM in experiment [3]. The “Fold-Selective (10 Minutes)” value in experiment [1] (SHP2 over SHP1) is given as 13.75 fold. The “Found Ligand Adduct (mass shift)” value in experiment [2] (intact protein LC-MS) amounted to 461 Da. Besides, the “% SHP2 Reacted (overall adduct formation)” value in experiment [2] (PVSN at 20 μM, compound 37 at 10 μM) is reported as 33%.
